Data on 20 compounds can be found in patent US9295673B2, “Combination of mTOR inhibitors and P13-kinase inhibitors, and uses thereof” (Intellikine LLC, priority 2011, dated 2016).

The target in one assay is T1, mTOR (Homo sapiens, UniProt P42345).
T1 construct: purchased Invitrogen
As to the kind of experiment: mTOR kinase inhibition assay (radiometric or LanthaScreen TR-FRET). The format is biochemical. The note with it: read-out: mTORC IC50. Background: In TR-FRET formats the signal depends on donor and acceptor labels being close together.

In a further assay the target is PI3K α (Homo sapiens, UniProt P42336). As to the kind of experiment: PI 3-Kinase (human) HTRF assay, PI3K α.
In a further assay the target is PI3K β (Homo sapiens, UniProt P42338). Kind of assay: PI 3-Kinase (human) HTRF assay, PI3K β. The note with it: read-out: PI3K β IC50.
In another assay the target is PI3K δ (Homo sapiens, UniProt O00329). Kind of assay: PI 3-Kinase (human) HTRF assay, PI3K δ.
The next assay deals with PI3K γ (Homo sapiens, UniProt P48736). Kind of assay: PI 3-Kinase (human) HTRF assay, PI3K γ. The note with it: read-out: PI3K γ IC50.
Setting [1] is: read-out: PI3K α IC50, in vitro.
[2] abbreviates: read-out: PI3K δ IC50, in vitro.

The term IC50 denotes the concentration that gives 50% inhibition.

Where two headings read alike, the source gives them in different places.

PI3K δ, sequence (O00329 whole entry): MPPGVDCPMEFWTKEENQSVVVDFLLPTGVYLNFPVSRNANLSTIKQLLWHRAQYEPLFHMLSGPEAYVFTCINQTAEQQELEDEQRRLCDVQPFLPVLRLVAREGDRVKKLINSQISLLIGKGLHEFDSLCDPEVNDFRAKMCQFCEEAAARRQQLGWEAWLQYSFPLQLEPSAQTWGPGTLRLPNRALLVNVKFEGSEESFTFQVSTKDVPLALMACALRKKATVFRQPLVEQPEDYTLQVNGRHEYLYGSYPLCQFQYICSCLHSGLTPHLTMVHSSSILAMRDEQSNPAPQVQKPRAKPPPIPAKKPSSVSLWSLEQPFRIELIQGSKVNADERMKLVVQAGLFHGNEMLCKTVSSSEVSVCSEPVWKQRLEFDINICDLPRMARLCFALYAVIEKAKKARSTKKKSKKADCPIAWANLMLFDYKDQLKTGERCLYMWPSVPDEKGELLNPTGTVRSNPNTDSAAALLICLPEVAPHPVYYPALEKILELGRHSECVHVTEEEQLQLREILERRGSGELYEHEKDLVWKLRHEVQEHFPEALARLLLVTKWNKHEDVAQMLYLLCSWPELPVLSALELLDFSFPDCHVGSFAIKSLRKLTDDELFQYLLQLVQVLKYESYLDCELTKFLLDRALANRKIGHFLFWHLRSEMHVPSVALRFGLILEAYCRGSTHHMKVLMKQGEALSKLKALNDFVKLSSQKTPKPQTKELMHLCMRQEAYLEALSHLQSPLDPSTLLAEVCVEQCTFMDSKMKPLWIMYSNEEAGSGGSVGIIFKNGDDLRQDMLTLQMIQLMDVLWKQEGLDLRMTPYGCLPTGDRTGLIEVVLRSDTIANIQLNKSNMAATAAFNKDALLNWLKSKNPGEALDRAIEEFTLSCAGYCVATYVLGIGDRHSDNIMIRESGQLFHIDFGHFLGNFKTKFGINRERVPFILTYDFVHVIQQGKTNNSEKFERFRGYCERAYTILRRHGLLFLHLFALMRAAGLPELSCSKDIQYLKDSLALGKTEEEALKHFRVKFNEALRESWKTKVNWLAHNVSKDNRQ
PI3K δ, sequence (P27986 whole entry partner): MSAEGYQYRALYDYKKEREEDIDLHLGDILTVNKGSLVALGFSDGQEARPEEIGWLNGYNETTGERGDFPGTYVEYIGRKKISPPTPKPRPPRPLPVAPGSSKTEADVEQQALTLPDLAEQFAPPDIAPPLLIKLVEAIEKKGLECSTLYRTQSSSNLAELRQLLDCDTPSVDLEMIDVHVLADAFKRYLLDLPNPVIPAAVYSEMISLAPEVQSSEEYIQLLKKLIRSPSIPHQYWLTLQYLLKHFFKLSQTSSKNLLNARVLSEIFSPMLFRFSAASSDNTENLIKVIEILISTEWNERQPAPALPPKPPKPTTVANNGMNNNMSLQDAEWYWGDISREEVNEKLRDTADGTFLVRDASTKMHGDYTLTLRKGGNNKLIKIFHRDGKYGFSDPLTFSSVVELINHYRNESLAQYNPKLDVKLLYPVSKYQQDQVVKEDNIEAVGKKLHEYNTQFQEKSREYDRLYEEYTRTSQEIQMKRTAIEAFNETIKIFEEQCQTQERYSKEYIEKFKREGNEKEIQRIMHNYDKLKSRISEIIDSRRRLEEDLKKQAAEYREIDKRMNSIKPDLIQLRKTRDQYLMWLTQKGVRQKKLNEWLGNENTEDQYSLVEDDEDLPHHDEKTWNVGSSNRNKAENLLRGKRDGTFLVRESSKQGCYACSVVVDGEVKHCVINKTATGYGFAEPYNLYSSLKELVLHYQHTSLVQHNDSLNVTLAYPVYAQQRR
PI3K β, sequence (P42338 whole entry): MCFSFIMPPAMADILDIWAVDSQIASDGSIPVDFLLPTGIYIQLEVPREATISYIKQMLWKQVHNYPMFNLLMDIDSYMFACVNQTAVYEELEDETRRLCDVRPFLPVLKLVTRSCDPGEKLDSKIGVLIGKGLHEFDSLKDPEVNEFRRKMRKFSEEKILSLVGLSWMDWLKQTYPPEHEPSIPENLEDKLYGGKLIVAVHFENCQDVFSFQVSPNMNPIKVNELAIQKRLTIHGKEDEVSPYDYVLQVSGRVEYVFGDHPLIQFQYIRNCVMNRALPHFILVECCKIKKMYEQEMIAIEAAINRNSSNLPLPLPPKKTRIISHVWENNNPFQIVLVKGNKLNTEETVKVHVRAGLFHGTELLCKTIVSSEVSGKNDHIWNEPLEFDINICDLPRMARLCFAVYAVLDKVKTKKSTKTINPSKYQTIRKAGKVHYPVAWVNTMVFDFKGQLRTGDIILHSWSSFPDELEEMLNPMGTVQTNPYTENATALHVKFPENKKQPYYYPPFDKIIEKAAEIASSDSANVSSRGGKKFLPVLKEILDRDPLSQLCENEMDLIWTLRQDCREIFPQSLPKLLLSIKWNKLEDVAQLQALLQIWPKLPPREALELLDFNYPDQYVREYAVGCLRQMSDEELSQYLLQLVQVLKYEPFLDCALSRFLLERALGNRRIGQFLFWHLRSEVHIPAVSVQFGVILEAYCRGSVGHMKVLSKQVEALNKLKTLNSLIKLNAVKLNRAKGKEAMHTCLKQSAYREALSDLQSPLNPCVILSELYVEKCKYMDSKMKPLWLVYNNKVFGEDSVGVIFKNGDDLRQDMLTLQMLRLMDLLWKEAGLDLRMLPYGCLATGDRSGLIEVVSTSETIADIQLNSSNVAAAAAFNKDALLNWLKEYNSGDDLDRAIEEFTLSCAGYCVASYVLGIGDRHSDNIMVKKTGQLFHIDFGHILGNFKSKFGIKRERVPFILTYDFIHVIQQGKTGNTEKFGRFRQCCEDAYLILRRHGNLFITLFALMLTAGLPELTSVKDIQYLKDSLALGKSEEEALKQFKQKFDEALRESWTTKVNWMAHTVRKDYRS
PI3K β, sequence (P27986 whole entry partner): as the sequence (P27986 whole entry partner) above
PI3K γ, sequence (P48736 whole entry): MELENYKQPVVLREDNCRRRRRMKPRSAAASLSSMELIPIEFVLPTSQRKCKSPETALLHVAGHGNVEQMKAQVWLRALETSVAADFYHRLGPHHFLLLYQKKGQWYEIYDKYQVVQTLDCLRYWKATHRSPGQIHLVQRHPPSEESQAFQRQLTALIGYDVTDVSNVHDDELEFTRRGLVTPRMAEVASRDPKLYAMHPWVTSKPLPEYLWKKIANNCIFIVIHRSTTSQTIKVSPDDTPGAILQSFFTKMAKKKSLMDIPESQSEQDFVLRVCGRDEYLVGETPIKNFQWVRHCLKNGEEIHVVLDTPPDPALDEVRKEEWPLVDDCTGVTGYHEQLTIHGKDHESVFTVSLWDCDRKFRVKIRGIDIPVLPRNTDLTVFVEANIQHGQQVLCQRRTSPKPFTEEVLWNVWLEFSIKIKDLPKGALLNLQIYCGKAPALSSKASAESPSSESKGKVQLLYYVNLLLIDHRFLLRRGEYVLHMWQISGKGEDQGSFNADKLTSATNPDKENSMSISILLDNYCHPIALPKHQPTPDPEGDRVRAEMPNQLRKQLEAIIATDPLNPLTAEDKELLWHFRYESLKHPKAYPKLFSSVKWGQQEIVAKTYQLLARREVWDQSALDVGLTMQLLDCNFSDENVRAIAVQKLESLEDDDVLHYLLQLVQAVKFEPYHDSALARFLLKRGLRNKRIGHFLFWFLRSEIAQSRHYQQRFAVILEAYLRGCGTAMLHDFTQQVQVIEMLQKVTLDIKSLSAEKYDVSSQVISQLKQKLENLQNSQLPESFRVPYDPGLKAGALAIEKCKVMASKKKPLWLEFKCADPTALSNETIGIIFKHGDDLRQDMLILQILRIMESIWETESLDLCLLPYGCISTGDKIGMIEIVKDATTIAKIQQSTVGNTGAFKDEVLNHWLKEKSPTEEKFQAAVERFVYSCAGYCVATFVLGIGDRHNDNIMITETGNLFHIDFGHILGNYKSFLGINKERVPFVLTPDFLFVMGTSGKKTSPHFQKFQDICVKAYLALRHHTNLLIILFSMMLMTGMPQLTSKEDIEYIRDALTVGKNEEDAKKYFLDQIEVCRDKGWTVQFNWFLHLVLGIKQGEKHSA
PI3K α, sequence (P42336 whole entry): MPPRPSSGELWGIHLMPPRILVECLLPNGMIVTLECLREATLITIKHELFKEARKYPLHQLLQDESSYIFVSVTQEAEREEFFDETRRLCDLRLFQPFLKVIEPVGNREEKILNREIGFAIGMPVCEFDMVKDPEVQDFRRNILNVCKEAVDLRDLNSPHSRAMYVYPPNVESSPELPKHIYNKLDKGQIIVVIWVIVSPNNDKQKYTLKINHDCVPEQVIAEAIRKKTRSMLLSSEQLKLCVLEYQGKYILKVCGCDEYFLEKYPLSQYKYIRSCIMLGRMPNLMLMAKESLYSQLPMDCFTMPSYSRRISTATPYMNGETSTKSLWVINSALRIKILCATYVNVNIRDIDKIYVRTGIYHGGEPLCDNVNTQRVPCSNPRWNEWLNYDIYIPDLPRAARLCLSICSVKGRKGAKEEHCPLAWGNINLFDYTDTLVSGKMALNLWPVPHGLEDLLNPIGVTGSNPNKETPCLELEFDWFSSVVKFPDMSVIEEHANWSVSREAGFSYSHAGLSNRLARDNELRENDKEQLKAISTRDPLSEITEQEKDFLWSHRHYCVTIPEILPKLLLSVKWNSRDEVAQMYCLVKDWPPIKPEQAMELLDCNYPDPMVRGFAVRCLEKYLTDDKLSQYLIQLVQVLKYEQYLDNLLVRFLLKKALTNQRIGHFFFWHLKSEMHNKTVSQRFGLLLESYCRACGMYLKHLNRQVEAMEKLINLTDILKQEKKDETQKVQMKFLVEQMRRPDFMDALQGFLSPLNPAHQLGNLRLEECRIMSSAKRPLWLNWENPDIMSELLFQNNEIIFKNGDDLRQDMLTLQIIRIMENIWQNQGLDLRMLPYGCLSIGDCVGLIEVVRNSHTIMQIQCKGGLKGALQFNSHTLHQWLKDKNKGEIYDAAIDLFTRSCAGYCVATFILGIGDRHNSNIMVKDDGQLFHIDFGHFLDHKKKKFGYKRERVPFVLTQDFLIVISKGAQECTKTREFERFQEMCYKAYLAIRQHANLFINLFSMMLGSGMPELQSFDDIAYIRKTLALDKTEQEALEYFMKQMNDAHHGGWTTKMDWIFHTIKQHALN
PI3K α, sequence (P27986 whole entry partner): as the sequence (P27986 whole entry partner) above
Description for PI3K α: (§1) An exemplary system is PI 3-Kinase (human) HTRF™ Assay from Upstate. […] Briefly, the assay is a time resolved FRET assay that indirectly measures PIP3 product formed by the activity of a PI3-K. The kinase reaction is performed in a microtitre plate (e.g., a 384 well microtitre plate). The total reaction volume is approximately 20 ul per well. In the first step, each well receives 2 ul of test compound in 20% dimethylsulphoxide resulting in a 2% DMSO final concentration. […] The plate is sealed and incubated for 15 minutes at room temperature. […] The plate is sealed and incubated for 1 hour at room temperature. The reaction is stopped by adding 5 ul of Stop Solution per well and then 5 ul of Detection Mix is added per well. The plate is sealed, incubated for 1 hour at room temperature, and then read on an appropriate plate reader. Data is analyzed and IC50s are generated using GraphPad Prism 5.
Description for PI3K γ: as §1
Description for PI3K δ: as §1
Description for mTOR: The compounds described herein can be tested against recombinant mTOR (Invitrogen) in an assay containing 50 mM HEPES, pH 7.5, 1 mM EGTA, 10 mM MgCl2, 2.5 mM, 0.01% Tween, 10 μM ATP (2.5 μCi of μ-32P-ATP), and 3 mg/mL BSA. Rat recombinant PHAS-1/4EBP1 (Calbiochem; 2 mg/mL) is used as a substrate. Reactions are terminated by spotting onto nitrocellulose, which is washed with 1M NaC1/1% phosphoric acid (approximately 6 times, 5-10 minutes each). Sheets are dried and the transferred radioactivity quantitated by phosphorimaging.
For instance, one can use Invitrogen's LanthaScreen™ Kinase assay to test the inhibitors of mTOR disclosed herein. This assay is a time resolved FRET platform that measures the phosphorylation of GFP labeled 4EBP1 by mTOR kinase. The kinase reaction is performed in a white 384 well microtitre plate. The total reaction volume is 20 ul per well and the reaction buffer composition is 50 mM HEPES pH7.5, 0.01% Polysorbate 20, 1 mM EGTA, 10 mM MnCl2, and 2 mM DTT. In the first step, each well receives 2 ul of test compound in 20% dimethylsulphoxide resulting in a 2% DMSO final concentration. […] The plate is sealed and incubated for 1 hour at room temperature. […] The plate is sealed, incubated for 1 hour at room temperature, and then read on a plate reader set up for LanthaScreen™ TR-FRET. Data is analyzed and IC50s are generated using GraphPad Prism 5.

On to `CC(C)[C@@H](N)C(=O)N1CCN(c2cnc3ccc(-c4ccc5oc(N)nc5c4)cc3n2)CC1` [Compound 270], for which the IC50 was < 10 µM on mTOR, < 0.1 µM at PI3K α (read-out: PI3K α IC50), < 1 µM at PI3K β and < 1 µM at PI3K δ (read-out: PI3K δ IC50).

Take `Nc1cc(-c2ccc3ncc(C(=O)N4CCOCC4)n3c2)cnc1Cl` [Compound 415]: the IC50 is < 10 µM at PI3K α (setting [1]), > 10 µM on PI3K β (in vitro), > 10 µM on PI3K γ (in vitro) and > 10 µM at PI3K δ (setting [2]).

Consider `COc1ccc(CNc2n[nH]c3cc(-c4ccc5oc(N)nc5c4)ccc23)cc1` [Compound 429], for which the IC50 on PI3K α (setting [1]), on PI3K β (in vitro), at PI3K γ (in vitro) and on PI3K δ (setting [2]) was > 10 µM throughout.

`CNS(=O)(=O)c1cc(-c2ccc3ncc(C(=O)N4CCOCC4)n3c2)ccc1OC` [Compound 445]: the half-inhibitory concentration (IC50) on PI3K α (setting [1]), at PI3K β (in vitro), on PI3K γ (in vitro) and on PI3K δ (setting [2]) was > 10 µM in each case.

In the case of `O=C(c1cnc2ccc(-c3ccnc4[nH]ncc34)cn12)N1CCOCC1` [Compound 532], the IC50 is > 10 µM at mTOR (in vitro) and < 10 µM on PI3K α (setting [1]).

As to `CN1CC2CN(C(=O)c3cnc4ccc(-c5ccc6oc(N)nc6c5)cn34)CC2C1` (centres unmarked) [Compound 533], the IC50 on mTOR (in vitro) is > 10 µM.

Consider `Cc1ncc(-c2ccc3ncc(C(=O)N4C5CCC4COC5)n3c2)c2cn[nH]c12` [Compound 538], for which the figures for the 50% inhibitory concentration (IC50) on mTOR (in vitro) and on PI3K δ (read-out: PI3K δ IC50) were > 10 µM and < 10 µM, respectively.

On to `O=C(c1cnc2ccc(-c3cncc4c3cnn4CCO)cn12)N1CCOCC1` [Compound 539], for which the IC50 at PI3K α (setting [1]), at PI3K β (in vitro), on PI3K γ (in vitro) and at PI3K δ (setting [2]) was > 10 µM throughout.

With `Cc1cc(-c2ccc3nc(N)oc3c2)cn2c(-c3ccncc3)nnc12` [Compound 543], the concentration for half-maximal inhibition (IC50) on PI3K α (setting [1]) was > 10 µM; at PI3K β (in vitro) it was < 10 µM; on PI3K γ (in vitro), > 10 µM; on PI3K δ (setting [2]) it was > 10 µM.

With `CC1CN(C2CN(c3cnc4ccc(-c5ccc6oc(N)nc6c5)nc4n3)C2)CCO1` (centres unmarked) [Compound 569], the IC50 was < 1 µM at PI3K α (read-out: PI3K α IC50, Table 4); > 10 µM at PI3K β (Table 4); < 10 µM at PI3K γ (Table 4); > 10 µM on PI3K δ (read-out: PI3K δ IC50, Table 4).

As to `Nc1nc2cc(-c3ccc4ncc(N5CC(N6CC7CCC(C6)O7)C5)nc4n3)ccc2o1` [Compound 571], the IC50 is < 1 µM on PI3K α (read-out: PI3K α IC50, Table 4); > 10 µM at PI3K β (Table 4); < 10 µM at PI3K γ (Table 4); > 10 µM on PI3K δ (read-out: PI3K δ IC50, Table 4).

As to `Nc1nc2cc(-c3ccc4ncc(N5C6CCC5COC6)cc4n3)ccc2o1` [Compound 574], the IC50 was < 0.1 µM on PI3K α (read-out: PI3K α IC50, Table 4); < 10 µM on PI3K β (Table 4); < 0.1 µM at PI3K γ (Table 4); > 10 µM on PI3K δ (read-out: PI3K δ IC50).

On to `C[C@@H]1CN(c2cnc3ccc(-c4ccc5oc(N)nc5c4)nc3c2)CCN1` [Compound 599], for which the IC50 at mTOR (Table 4) is > 10 µM; on PI3K γ (Table 4), < 10 µM; at PI3K δ (read-out: PI3K δ IC50) it was < 10 µM.

For the compound `Nc1nc2cc(-c3ccc4ncc(N5CC(N6C7CCC6COC7)C5)nc4n3)ccc2o1` [Compound 602], the half-maximal inhibitory concentration (IC50) on PI3K α (read-out: PI3K α IC50) was < 10 µM; at PI3K β (Table 4), > 10 µM; at PI3K γ, > 10 µM; at PI3K δ (read-out: PI3K δ IC50), > 10 µM.

Consider `C[C@H]1CN(C2CN(c3cnc4ccc(-c5ccc6oc(N)nc6c5)nc4c3)C2)CCN1C` [Compound 606], for which the IC50 at mTOR (Table 4) is > 10 µM; at PI3K α, < 0.1 µM; against PI3K δ, < 1 µM.

Turning to `C[C@@H]1CN(C2CN(c3cnc4ccc(-c5ccc6oc(N)nc6c5)nc4c3)C2)CCN1` [Compound 607], the IC50 is > 10 µM at mTOR (Table 4) and < 10 µM at PI3K β (Table 4).

Take `C[C@@H]1CN(C2CN(c3cnc4ccc(-c5ccc6oc(N)nc6c5)nc4c3)C2)CCN1C` [Compound 608]: the figures for the IC50 at mTOR (Table 4), on PI3K β (Table 4) and at PI3K γ (Table 4) were > 10 µM, < 10 µM and < 10 µM, respectively.

With `Nc1nc2cc(-c3ccc4ncc(N5CC6CCC(C5)O6)cc4n3)ccc2o1` [Compound 610], the half-inhibitory concentration (IC50) is < 0.1 µM on PI3K α (read-out: PI3K α IC50, Table 4); > 10 µM on PI3K β (Table 4); < 0.1 µM at PI3K γ (Table 4); > 10 µM at PI3K δ (read-out: PI3K δ IC50, Table 4).

Take `Nc1nc2cc(-c3ccc4ncc(N5CC(N6C7CCC6COC7)C5)cc4n3)ccc2o1` [Compound 618]: the IC50 was < 0.1 µM on PI3K α (read-out: PI3K α IC50, Table 4); > 10 µM at PI3K β (Table 4); < 1 µM on PI3K γ (Table 4); < 10 µM at PI3K δ (read-out: PI3K δ IC50).

As to `Nc1nc2cc(-c3cnc4ccc(N5C6CCC5COC6)nc4c3)ccc2o1` [Compound 632], the IC50 on PI3K α (read-out: PI3K α IC50) was < 10 µM; on PI3K β (Table 4), > 10 µM; on PI3K γ it was < 10 µM; at PI3K δ (read-out: PI3K δ IC50) it was > 10 µM.
